This note sets out measurements from ChEMBL document CHEMBL3272037, “Antitumor agents. 21. A proposed mechanism for inhibition of cancer growth by tenulin and helenalin and related cyclopentenones” (J Med Chem, 1977).

Data set [1] relates to P388. The data set is described as follows: Antitumor activity against mouse P388 cells allografted in DBA/2 mouse at 25 mg/kg/day, ip relative to control. As to conditions: route intraperitoneal. Type of data set: functional.
Data set [2] has as its system Ehrlich. The data set is described as follows: Antitumor activity against mouse EAC cells allografted in CF1 mouse assessed as tumor growth inhibition at 33.3 mg/kg/day, ip after 7 days. The data set is classed as functional. As to conditions: 168 h, route intraperitoneal, read-out: TGI.
For data set [3], the system named is W256. The data set is described as follows: Antitumor activity against rat Walker 256 cells allografted in Sprague-Dawley rat at 2.5 mg/kg/day, ip relative to control. Type of data set: functional. As to conditions: route intraperitoneal.
Data set [4] is described as follows: Cytotoxicity against human Hep2 cells. As to conditions: HEp-2, read-out: ED50 (the source's name). The data set is classed as functional.
Data set [5] relates to Ehrlich. Nature of the data set: Antitumor activity against mouse EAC cells allografted in CF1 mouse assessed as survival at 33.3 mg/kg/day, ip after 7 days. The data set is classed as functional, organism-based.
Data set [6] can be described thus: Stability of the compound assessed as reactivity with histidine at 28 mg after 7 days by NMR analysis. Type of data set: physicochemical. As to conditions: 168 h.
A short description of data set [7]: Stability of the compound assessed as reactivity with reduced glutathione at 28 mg after 16 hrs by NMR analysis. Type of data set: physicochemical.
Data set [8] in a line: Stability of the compound assessed as reactivity with L-cysteine by NMR analysis. Type of data set: physicochemical.
Data set [9] in a line: Binding affinity to DNA (unknown origin) at 0.015 ug at pH 7.2 after 24 hrs by UV-spectrophotometry.
Data set [10] in a line: Binding affinity to dATP (unknown origin) at 0.015 ug by UV-spectrophotometry.
The subject of data set [11] is Ehrlich. Nature of the data set: Antitumor activity against mouse EAC cells allografted in CF1 mouse assessed as 3',5' cAMP level at 0.125 mg/day administered from day 5 to day 7 measured on day 8 by RIA relative to control. Type of data set: functional.
For data set [12], the system named is Ehrlich. The data set is described as follows: Antitumor activity against mouse EAC cells allografted in CF1 mouse assessed as [gamma-32P] incorporation into nonhistone at 0.125 mg/day administered from day 5 to day 7 measured on day 8 relative to control. Type of data set: functional.
Data set [13] in a line: Stability of the compound assessed as reactivity with oxidized glutathione at 10 mg after 4 hrs by NMR analysis. The data set is classed as physicochemical.
In data set [14] the test system is Ehrlich. The data set is described as follows: Antitumor activity against mouse EAC cells allografted in CF1 mouse assessed as DNA content at 0.125 mg/day administered from day 5 to day 7 measured on day 8 by UV-spectrophotometry relative to control. Type of data set: functional.
The test system of data set [15] is Ehrlich. The data set is described as follows: Antitumor activity against mouse EAC cells allografted in CF1 mouse assessed as cell viability at 0.125 mg/day administered from day 5 to day 7 measured on day 8 by trypan blue assay relative to control. Type of data set: functional, cell-based.
Data set [16] relates to Ehrlich. The data set is described as follows: Antitumor activity against mouse EAC cells allografted in CF1 mouse assessed as [gamma-32P] incorporation into histone at 0.125 mg/day administered from day 5 to day 7 measured on day 8 relative to control. Type of data set: functional.
Data set [17] in a line: Stability of the compound assessed as reactivity with L-cysteine at 10 mg after 4 hrs by NMR analysis. The data set is classed as physicochemical.
For data set [18], the system named is Ehrlich. Nature of the data set: Antitumor activity against mouse EAC cells allografted in CF1 mouse assessed as [methyl-14C]thymidine incorporation to DNA at 0.125 mg/day administered from day 5 to day 7 measured on day 8 by scintillation counting analysis relative to control. The data set is classed as functional.
The test system of data set [19] is Ehrlich. Nature of the data set: Antitumor activity against mouse EAC cells allografted in CF1 mouse assessed as free lysosomal DNAse activity at 0.125 mg/day administered from day 5 to day 7 measured on day 8 relative to control. Type of data set: functional.
Data set [20] deals with Ehrlich. Nature of the data set: Antitumor activity against mouse EAC cells assessed as tissue SH stimulation at 0.6 mg measured on day 8 by Ellman method relative to control. The data set is classed as functional.
Data set [21] is described as follows: Binding affinity to dGMP (unknown origin) at 0.015 ug at pH 7.2 after 24 hrs by UV-spectrophotometry.
Data set [22] in a line: Binding affinity to dGTP (unknown origin) at 0.015 ug at pH 7.2 after 24 hrs by UV-spectrophotometry.
In data set [23] the test system is Ehrlich. Nature of the data set: Antitumor activity against mouse EAC cells allografted in CF1 mouse assessed as nuclear DNA polymerase activity at 0.125 mg/day administered from day 5 to day 7 measured on day 8 relative to control. Type of data set: functional.
The nature of data set [24]: Binding affinity to dGMP (unknown origin) by NMR analysis.
Data set [25] in a line: Stability of the compound assessed as reactivity with reduced glutathione at 10 mg after 4 hrs by NMR analysis. Type of data set: physicochemical.
The nature of data set [26]: Binding affinity to dAMP (unknown origin) at 0.015 ug by UV-spectrophotometry.
For data set [27], the system named is Ehrlich. The data set is described as follows: Antitumor activity against mouse EAC cells allografted in CF1 mouse assessed as chromatin protein content at 0.125 mg/day administered from day 5 to day 7 measured on day 8 relative to control. Type of data set: functional.
For data set [28], the system named is Ehrlich. Nature of the data set: Antitumor activity against mouse EAC cells assessed as nuclear DNA polymerase activity at 0.6 mg measured on day 8 relative to control. The data set is classed as functional.
Data set [29] concerns Ehrlich. The data set is described as follows: Antitumor activity against mouse EAC cells allografted in CF1 mouse assessed as ascitocrit count per mililitre of fluid at 0.125 mg/day administered from day 5 to day 7 measured on day 8 by hemocytometry relative to control. The data set is classed as functional.
Data set [30] relates to Ehrlich. The data set is described as follows: Antitumor activity against mouse EAC cells allografted in CF1 mouse assessed as [gamma-32P] incorporation into histone at 0.25 mg/day administered from day 5 to day 7 measured on day 8 relative to control. Type of data set: functional.
In data set [31] the test system is Ehrlich. The data set is described as follows: Antitumor activity against mouse EAC cells allografted in CF1 mouse assessed as nuclear DNA polymerase activity at 0.25 mg/day administered from day 5 to day 7 measured on day 8 relative to control. Type of data set: functional.
Data set [32] concerns Ehrlich. Nature of the data set: Antitumor activity against mouse EAC cells allografted in CF1 mouse assessed as free lysosomal DNAse activity at 0.25 mg/day administered from day 5 to day 7 measured on day 8 relative to control. Type of data set: functional.
Data set [33] has as its system Ehrlich. The data set is described as follows: Antitumor activity against mouse EAC cells allografted in CF1 mouse assessed as DNA content at 0.25 mg/day administered from day 5 to day 7 measured on day 8 by UV-spectrophotometry relative to control. Type of data set: functional.
For data set [34], the system named is Ehrlich. The data set is described as follows: Antitumor activity against mouse EAC cells allografted in CF1 mouse assessed as cell viability at 0.25 mg/day administered from day 5 to day 7 measured on day 8 by trypan blue assay relative to control. Type of data set: functional, cell-based.
For data set [35], the system named is Ehrlich. Nature of the data set: Antitumor activity against mouse EAC cells allografted in CF1 mouse assessed as [methyl-14C]thymidine incorporation to DNA at 0.25 mg/day administered from day 5 to day 7 measured on day 8 by scintillation counting analysis relative to control. Type of data set: functional.
The test system of data set [36] is Ehrlich. Nature of the data set: Antitumor activity against mouse EAC cells allografted in CF1 mouse assessed as 3',5' cAMP level at 0.25 mg/day administered from day 5 to day 7 measured on day 8 by RIA relative to control. The data set is classed as functional.
Data set [37] concerns Ehrlich. Nature of the data set: Antitumor activity against mouse EAC cells allografted in CF1 mouse assessed as ascitocrit count per mililitre of fluid at 0.25 mg/day administered from day 5 to day 7 measured on day 8 by hemocytometry relative to control. The data set is classed as functional.
The subject of data set [38] is Ehrlich. Nature of the data set: Antitumor activity against mouse EAC cells allografted in CF1 mouse assessed as chromatin protein content at 0.25 mg/day administered from day 5 to day 7 measured on day 8 relative to control. The data set is classed as functional.

Values after ≈ are worked out from the molar mass of the structure shown. Active and inactive are the calls of the source. No cut-off for these calls is given here.

In the case of `C[C@@H]1C[C@H]2OC(=O)[C@@H](C)[C@H]2[C@H](O)[C@]2(C)C(=O)C=C[C@@H]12`, the results for the T/C in data set [1] and in [3] were 134% and 207%, respectively. Moreover, the inhibition in vivo at 33.3 mg/kg/day in data set [2] was found to be 100%. The EC50 in [4] was 0.814 µg/mL (≈ 3.08 µM). Further, the Survival entry in [5] is “Active”.
As for `C[C@@H]1C[C@@H]2OC(=O)[C@]3(C)[C@@H]2[C@@H](OC3(C)O)[C@]2(C)C(=O)CC(SC[C@H](N)C(=O)O)[C@@H]12` (stereo partly drawn), in data set [2], the inhibition in vivo at 33.3 mg/kg/day was 15.8%. For the same compound, the EC50 in data set [4] was 13.7 µg/mL (≈ 32 µM). Moreover, the Survival entry in data set [5] is “Active”.
With `O=C1C=CCC1`, the inhibition in vivo at 33.3 mg/kg/day in data set [2] came to 74.8%. The values for the Stability result in data set [6], in data set [7] and in data set [8] were “Unstable”, “Stable” and “Stable”, respectively. Moreover, the T/C in data set [3] was 188%. Further, the EC50 in data set [4] is 50 µg/mL (≈ 609 µM). The Survival result in data set [5] is “Active”.
Turning to `C=C1C(=O)O[C@@H]2C[C@@H](C)[C@@H]3C=CC(=O)[C@@]3(C)[C@@H](O)[C@H]12` [HELENALIN], the result in data set [9], in data set [10], in data set [15], in data set [21], in [22] and in [24] was inactive. Moreover, the outcome in [26] was inactive. The Activity was 292% in data set [11]; 63% in data set [12]; 66% in [14]; 30% in [16]; 12% in data set [18]; 25% in data set [19]. In addition, the Activity is 183% in [20]; 52% in data set [23]; 83% in [27]; 35% in data set [28]; 70% in data set [29]. The Stability entry in [13] is on record as “Unstable”; in data set [17], “Stable”; in data set [25], “Stable”. Besides, the values for the T/C in data set [1] and in [3] were 127% and 316%, respectively. In [2], the inhibition in vivo at 33.3 mg/kg/day was 100%. The EC50 in data set [4] stood at 0.1 µg/mL (≈ 0.381 µM).
For the compound `Sc1ncnc2nc[nH]c12` [MERCAPTOPURINE ANHYDROUS], the inhibition in vivo at 33.3 mg/kg/day in data set [2] amounted to 99.4%. Further, the Survival result in [5] is “Active”.
For the compound `C[C@@H]1C[C@@H]2OC(=O)[C@]3(C)[C@H]2[C@@H](OC3(C)O)[C@]2(C)C(=O)C=C[C@@H]12` (stereo partly drawn) [TENULIN], the result in [9], in data set [10], in [34], in data set [21], in data set [22] and in data set [26] was inactive. Further, the Activity in data set [30] was found to be 17%; in data set [31] it was 71%; in data set [32], 29%; in data set [33], 73%; in data set [35], 9%; in data set [36] it was 236%. The Activity in data set [20] worked out at 203%; in [37], 43%; in [38], 92%; in data set [28], 88%. In addition, the T/C in [1] amounted to 131%; in data set [3], 266%. The inhibition in vivo at 33.3 mg/kg/day in [2] came to 97.3%. Besides, the EC50 in data set [4] stood at 4.5 µg/mL (≈ 14.7 µM). Further, in [5], the Survival result was “Active”.
